Test results published in ChEMBL document CHEMBL1201862, “PubChem BioAssay data set” (2004).
Activity calls are given as the source filed them.

Assays:
[1] = viability of uninfected HEp-2 cells – cell-based, HTS, cytotoxicity control for RSV inhibitor project, dose response (AID 2410); assay type: functional; settings: human respiratory syncytial virus
[2] = system: Streptococcus sp. 'group A'; assay: Streptococcus pyogenes SK(-)GAS viability under kanamycin – luminescence, BacTiterGlo, confirmation, counter-screen for streptokinase expression inhibitor project, dose response (AID 1900); assay type: functional, organism-based
[3] = molecular target: T1, Short transient receptor potential channel 4 (Mus musculus, UniProt Q9QUQ5); assay: block of DAMGO-driven TRPC4 calcium entry – cell-based, HEK293 TRPC4/mu-opioid, Fluo-4 calcium, dose response (AID 434942); assay type: functional;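 note: potency of inhibitors blocking the TRPC4 calcium response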
T1 sequence (Q9QUQ5 whole entry): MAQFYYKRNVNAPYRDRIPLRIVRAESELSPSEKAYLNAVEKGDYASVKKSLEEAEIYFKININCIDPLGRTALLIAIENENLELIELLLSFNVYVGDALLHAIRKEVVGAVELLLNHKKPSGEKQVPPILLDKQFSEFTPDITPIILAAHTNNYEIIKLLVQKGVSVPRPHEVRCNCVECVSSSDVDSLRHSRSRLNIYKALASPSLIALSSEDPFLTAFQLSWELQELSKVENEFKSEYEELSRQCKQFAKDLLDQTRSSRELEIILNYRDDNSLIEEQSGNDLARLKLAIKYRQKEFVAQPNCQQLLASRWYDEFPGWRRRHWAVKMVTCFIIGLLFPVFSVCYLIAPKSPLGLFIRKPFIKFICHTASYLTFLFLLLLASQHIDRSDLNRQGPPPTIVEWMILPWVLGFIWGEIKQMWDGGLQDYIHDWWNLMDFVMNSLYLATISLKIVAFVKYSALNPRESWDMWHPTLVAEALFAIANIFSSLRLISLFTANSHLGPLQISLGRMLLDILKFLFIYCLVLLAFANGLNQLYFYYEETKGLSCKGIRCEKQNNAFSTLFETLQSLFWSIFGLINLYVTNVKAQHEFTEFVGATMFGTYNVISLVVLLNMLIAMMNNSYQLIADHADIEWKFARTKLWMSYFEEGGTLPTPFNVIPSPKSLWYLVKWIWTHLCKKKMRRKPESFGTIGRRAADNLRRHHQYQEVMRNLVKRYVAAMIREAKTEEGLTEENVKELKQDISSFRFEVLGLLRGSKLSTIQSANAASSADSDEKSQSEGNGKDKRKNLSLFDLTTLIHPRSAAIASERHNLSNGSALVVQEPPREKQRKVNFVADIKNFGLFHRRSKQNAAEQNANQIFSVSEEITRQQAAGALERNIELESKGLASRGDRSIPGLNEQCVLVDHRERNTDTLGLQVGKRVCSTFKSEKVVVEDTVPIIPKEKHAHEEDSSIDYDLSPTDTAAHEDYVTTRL

[4] = system: Streptococcus; assay: GAS UMAA2166 growth inhibition – luminescence, BacTiterGlo, counter-screen for streptokinase expression inhibitor project, dose response (AID 1915); assay type: functional, organism-based;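 note: potency for reduction of bacterial viability or growth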
[5] = molecular target: T2, Sentrin-specific protease 6 (Homo sapiens, UniProt Q9GZR1); assay: SAR Analysis of small molecule inhibitors of Sentrin-specific protease 6 (SENP6) using a Luminescent assay. [Related pubchem assays (depositor defined):AID2582, AID2599]; assay type: functional
T2 sequence (Q9GZR1 whole entry): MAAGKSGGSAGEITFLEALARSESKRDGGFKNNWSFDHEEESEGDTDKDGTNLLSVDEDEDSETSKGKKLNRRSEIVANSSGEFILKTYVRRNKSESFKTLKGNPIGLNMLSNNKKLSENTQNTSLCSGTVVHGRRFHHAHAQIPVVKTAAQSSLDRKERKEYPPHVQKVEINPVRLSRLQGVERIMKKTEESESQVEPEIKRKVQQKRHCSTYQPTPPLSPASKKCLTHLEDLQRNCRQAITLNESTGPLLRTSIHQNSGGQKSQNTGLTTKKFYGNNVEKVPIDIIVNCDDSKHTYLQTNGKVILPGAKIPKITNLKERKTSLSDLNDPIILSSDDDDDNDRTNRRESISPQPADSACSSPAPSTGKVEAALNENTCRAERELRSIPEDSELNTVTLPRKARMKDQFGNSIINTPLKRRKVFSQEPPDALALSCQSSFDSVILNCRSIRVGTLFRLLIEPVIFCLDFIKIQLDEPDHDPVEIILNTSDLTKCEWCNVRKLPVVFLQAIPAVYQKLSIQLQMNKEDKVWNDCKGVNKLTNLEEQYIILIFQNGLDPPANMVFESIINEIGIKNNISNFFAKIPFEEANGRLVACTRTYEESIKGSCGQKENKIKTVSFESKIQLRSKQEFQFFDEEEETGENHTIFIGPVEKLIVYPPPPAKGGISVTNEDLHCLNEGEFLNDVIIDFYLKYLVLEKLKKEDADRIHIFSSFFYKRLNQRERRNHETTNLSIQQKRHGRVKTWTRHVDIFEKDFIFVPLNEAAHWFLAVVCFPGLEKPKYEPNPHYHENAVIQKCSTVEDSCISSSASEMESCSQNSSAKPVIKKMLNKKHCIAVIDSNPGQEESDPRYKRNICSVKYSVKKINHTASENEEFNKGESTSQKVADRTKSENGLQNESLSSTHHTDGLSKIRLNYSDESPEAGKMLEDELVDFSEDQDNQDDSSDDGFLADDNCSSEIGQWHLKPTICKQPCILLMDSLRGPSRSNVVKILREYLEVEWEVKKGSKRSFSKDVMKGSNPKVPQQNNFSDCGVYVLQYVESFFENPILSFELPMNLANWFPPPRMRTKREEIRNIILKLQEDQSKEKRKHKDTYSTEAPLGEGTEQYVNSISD

[6] = molecular target: Female germline-specific tumor suppressor gld-1 (Caenorhabditis elegans, UniProt Q17339); assay: blockers of GLD-1/TGE RNA complex formation – biochemical, fluorescence polarization, C. elegans, dose response (AID 2802);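 note: fluorescence polarization of labeled TGE RNA bound by purified gld-1 protein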
[7] = system: BJ; assay: BJ-TERT-LT-ST fibroblast viability loss – cell-based, RAS-independent, luminescence, dose response (AID 1935); assay type: functional; settings: Homo sapiens;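 note: BJ fibroblasts immortalized with TERT plus LT and ST oncogenes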
[8] = Luminescence-based dose response cell-based high throughput screening assay for cytotoxic compounds using the IEC-6 intestinal epithelial cell line. [Related pubchem assays: 1858 (Summary AID.), 1825 (Counterscreen.), 1907 (Confirmation screen.)]; assay type: functional
[9] = molecular target: Glucose-6-phosphate 1-dehydrogenase (Homo sapiens, UniProt P11413); assay: inhibition of Homo sapiens G6PD, dose series – biochemical, fluorescence, selectivity assay for P. falciparum G6PD inhibitor project, dose response (AID 504792); assay type: functional
[10] = molecular target: T3, Mitochondrial peptide methionine sulfoxide reductase (Bos taurus, UniProt P54149); assay type: functional;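 note: absorbance read-out, biochemical high-throughput dose-response screen for MsrA inhibitors, confirmatory; recombinant bovine MsrA coupled to E. coli TrxB with NADPH and selenocystamine; potency is for inhibitors of MsrA activity on DMSO substrate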
T3 sequence (P54149 whole entry): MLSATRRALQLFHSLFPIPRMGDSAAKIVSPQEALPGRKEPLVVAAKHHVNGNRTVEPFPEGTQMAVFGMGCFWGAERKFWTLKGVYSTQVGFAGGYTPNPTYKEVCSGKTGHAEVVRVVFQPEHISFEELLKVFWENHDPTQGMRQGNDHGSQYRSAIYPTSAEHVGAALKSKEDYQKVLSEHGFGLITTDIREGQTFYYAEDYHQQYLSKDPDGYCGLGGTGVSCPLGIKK

[11] = system: Vero; assay: viability of Vero cells under compound – cytotoxicity control for flavivirus capping enzyme inhibitors (AID 588742); assay type: functional; settings: Chlorocebus sabaeus

Sequence of Glucose-6-phosphate 1-dehydrogenase (P11413 whole entry): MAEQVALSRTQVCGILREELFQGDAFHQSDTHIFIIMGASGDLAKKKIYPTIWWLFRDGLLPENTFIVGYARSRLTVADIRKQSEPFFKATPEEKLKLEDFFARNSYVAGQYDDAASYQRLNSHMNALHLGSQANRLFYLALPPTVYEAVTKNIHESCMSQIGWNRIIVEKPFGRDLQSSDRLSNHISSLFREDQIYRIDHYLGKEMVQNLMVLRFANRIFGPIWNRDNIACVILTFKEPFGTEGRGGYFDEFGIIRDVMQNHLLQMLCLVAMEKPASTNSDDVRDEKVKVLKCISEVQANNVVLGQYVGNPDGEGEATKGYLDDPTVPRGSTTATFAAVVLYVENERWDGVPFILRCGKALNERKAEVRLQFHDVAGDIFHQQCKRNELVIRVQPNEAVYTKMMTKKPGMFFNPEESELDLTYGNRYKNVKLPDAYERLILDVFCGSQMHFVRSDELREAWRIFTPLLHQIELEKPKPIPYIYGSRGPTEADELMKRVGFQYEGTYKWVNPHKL
Sequence of Female germline-specific tumor suppressor gld-1 (Q17339 whole entry): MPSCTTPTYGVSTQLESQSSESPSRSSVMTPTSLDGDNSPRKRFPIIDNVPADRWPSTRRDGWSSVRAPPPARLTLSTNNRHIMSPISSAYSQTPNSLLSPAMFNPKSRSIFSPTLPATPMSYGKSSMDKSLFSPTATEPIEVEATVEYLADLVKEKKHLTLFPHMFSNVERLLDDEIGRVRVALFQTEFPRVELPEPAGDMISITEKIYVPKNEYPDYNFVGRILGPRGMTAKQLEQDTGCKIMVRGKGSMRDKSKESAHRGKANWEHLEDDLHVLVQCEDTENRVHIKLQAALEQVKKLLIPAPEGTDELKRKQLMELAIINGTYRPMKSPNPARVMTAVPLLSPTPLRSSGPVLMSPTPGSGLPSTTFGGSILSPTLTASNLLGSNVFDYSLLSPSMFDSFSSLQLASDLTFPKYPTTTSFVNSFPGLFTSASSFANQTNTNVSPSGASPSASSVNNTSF

For Cc1cccc(C)c1-n1cccc1/C=C1\SC(=S)N(c2cccc(C(=O)O)c2)C1=O, the CC50 [1] was 12.8 µM (active), the EC50 [2] was 2.07 µM (active) and the EC50 [3] was 3.35 µM (active). The EC50 [4] was 8.78 µM (active).
In the case of Oc1ccc(/C=N/Nc2cc(N3CCCC3)nc(N3CCCC3)n2)cc1, the IC50 [5] is reported as 18.1 µM (active) and the IC50 [6] is reported as 2.75 µM (active).
With COc1ccc(S(=O)(=O)/N=C2\C=C(Nc3ccc(O)cc3)C(=O)c3ccccc32)cc1 the EC50 [7] was 2.93 µM (inconclusive), the IC50 [8] was 586 nM (active) and the IC50 [9] was > 80 µM (inactive). The IC50 [10] was 197 µM (inactive).
In the case of COc1ccc(/C=N/Nc2cc(N3CCCC3)nc(N3CCCC3)n2)cc1, the CC50 [11] is reported as 24.7 µM (active).
